Values quoted from earlier work, collected in US20250224401A1, “METHODS OF DIAGNOSING B CELL MALIGNANCIES, DETECTING B CELL MALIGNANCY RELAPSE, AND TREATING THEREOF” (Rutgers, The State University of New Jersey, priority 2022, published 2025).

System: cultured human malignant B cells
Settings: in vitro

C=CC(=O)N1CCC[C@@H](n2nc(-c3ccc(Oc4ccccc4)cc3)c3c(N)ncnc32)C1 [ibrutinib]
cytotoxic effects on cultured human malignant B cells: moderate or minimal cytotoxic effects
